Results reported in the NIST ThermoML archive (doi:10.1016/j.jct.2016.09.022).
± gives the expanded uncertainty stated by the source.

How the values were obtained:
[1] = Liquid; for speed of sound: Frequency=1.5 MHz, Single path-length method; for mass density: 298.15 K, 101.33 kPa, Vibrating tube method
[2] = refractive index (Na D-line) (dimensionless); details: 298.15 K; 101.33 kPa; Liquid; Standard Abbe refractometry

CCCCCCCC [octane]
speed of sound [m/s], [1]
Details	283.15 K	293.15 K	303.15 K	313.15 K	323.15 K	333.15 K	343.15 K
100 kPa	1234.6 ± 2.5	1193.7 ± 2.5	1151.8 ± 2.4	1112.1 ± 2.3	1071.1 ± 2.2	1030.9 ± 2.1	990.7 ± 2.1
5100 kPa	1267.1 ± 2.9	1227.9 ± 2.8	1187.6 ± 2.8	1149 ± 2.8	1110.4 ± 2.7	1072.4 ± 2.7	1034.3 ± 2.7
10100 kPa	1296.9 ± 2.9	1259.5 ± 2.8	1221 ± 2.8	1183.4 ± 2.8	1146.1 ± 2.7	1110.1 ± 2.7	1074.2 ± 2.6
20100 kPa	1353.6 ± 3	1317.2 ± 2.9	1282.1 ± 2.9	1247.3 ± 2.8	1212.3 ± 2.8	1178.2 ± 2.7	1145 ± 2.7
30100 kPa	1405.7 ± 3	1370.4 ± 3	1336.8 ± 2.9	1303.8 ± 2.9	1271.6 ± 2.8	1239.8 ± 2.8	1208.7 ± 2.8
40100 kPa	1453.5 ± 3.1	1419.6 ± 3	1388.1 ± 3	1356.4 ± 2.9	1325.3 ± 2.9	1295 ± 2.9	1265.9 ± 2.8
50100 kPa	1498 ± 3.2	1465.6 ± 3.1	1435.5 ± 3.1	1405.1 ± 3	1375.2 ± 3	1346.2 ± 2.9	1318 ± 2.9
60100 kPa	1539.8 ± 3.2	1508.4 ± 3.2	1480 ± 3.1	1450.7 ± 3.1	1421.8 ± 3	1393.9 ± 3	1367.8 ± 2.9
70100 kPa	1579.8 ± 3.3	1549 ± 3.2	1521.7 ± 3.2	1493.2 ± 3.1	1465.5 ± 3.1	1438.5 ± 3	1412.8 ± 3
80100 kPa	1619 ± 3.4	1587.3 ± 3.3	1561.4 ± 3.3	1533.6 ± 3.2	1506.6 ± 3.2	1480.2 ± 3.1	1455.5 ± 3.1
90100 kPa	1652.4 ± 3.4	1623.9 ± 3.4	1598.9 ± 3.3	1571.9 ± 3.3	1545.7 ± 3.2	1519.8 ± 3.2	1496 ± 3.1
95100 kPa	1670.7 ± 3.5	1641.8 ± 3.4	1617 ± 3.4	1590.2 ± 3.3	1564.5 ± 3.3	1539 ± 3.2	1515.2 ± 3.2

Details	mass density [kg/m3]	refractive index
[1]	698.4 ± 1.4	–
[2]	–	1.3951 ± 0.0028

CO [methanol]
speed of sound [m/s], [1]
Details	283.15 K	293.15 K	303.15 K	313.15 K	323.15 K	333.15 K	343.15 K
100 kPa	1154.3 ± 2.3	1120.6 ± 2.3	1087.4 ± 2.2	1054.5 ± 2.1	1022 ± 2.1	989.77 ± 2	–
120 kPa	–	–	–	–	–	–	957.61 ± 1.9
5100 kPa	1182 ± 2.6	1149.2 ± 2.6	1118 ± 2.5	1087 ± 2.5	1055.8 ± 2.5	1025.2 ± 2.5	994.42 ± 2.5
10100 kPa	1209.3 ± 2.6	1176.2 ± 2.6	1146.4 ± 2.5	1116.8 ± 2.5	1087.2 ± 2.5	1058 ± 2.4	1028.6 ± 2.4
20100 kPa	1258.7 ± 2.7	1227.4 ± 2.6	1199.4 ± 2.6	1171.1 ± 2.6	1143.8 ± 2.5	1117.2 ± 2.5	1090.6 ± 2.5
30100 kPa	1303.6 ± 2.8	1274.2 ± 2.7	1248.1 ± 2.7	1221.5 ± 2.6	1195.3 ± 2.6	1169.8 ± 2.5	1144.9 ± 2.5
40100 kPa	1345.2 ± 2.8	1316.8 ± 2.8	1292.5 ± 2.7	1267.3 ± 2.7	1242.7 ± 2.6	1218.6 ± 2.6	1194.9 ± 2.6
50100 kPa	1384.4 ± 2.9	1357 ± 2.8	1333.7 ± 2.8	1309.7 ± 2.8	1286.3 ± 2.7	1263.6 ± 2.7	1241 ± 2.6
60100 kPa	1421 ± 2.9	1394.9 ± 2.9	1372.8 ± 2.9	1349.4 ± 2.8	1326.6 ± 2.8	1304.8 ± 2.7	1283.5 ± 2.7
70100 kPa	1456.2 ± 3	1430.8 ± 3	1409.7 ± 2.9	1387.1 ± 2.9	1365 ± 2.8	1343.6 ± 2.8	1323.1 ± 2.8
80100 kPa	1489.1 ± 3	1464.7 ± 3	1444.6 ± 3	1422.7 ± 2.9	1401.3 ± 2.9	1380.8 ± 2.9	1361.1 ± 2.8
90100 kPa	1520.7 ± 3.1	1496.7 ± 3.1	1477.7 ± 3	1456.3 ± 3	1435.9 ± 3	1415.9 ± 2.9	1396.8 ± 2.9
95100 kPa	1536 ± 3.1	1512.3 ± 3.1	1493.8 ± 3	1472.6 ± 3	1452.3 ± 3	1432.7 ± 3	1414 ± 2.9

Details	mass density [kg/m3]	refractive index
[1]	786.5 ± 1.6	–
[2]	–	1.3263 ± 0.0027
